The record followed here is patent US12391712B2, “Phosphate derivatives of RORgamma modulators and uses thereof” (GENFIT, priority 2019, dated 2025).

≈ marks a conversion by molar mass, not a printed value.

A short description of data set [1]: Solubility in phosphate buffer pH=7.4. It is filed as physicochemical. The settings on record: for solubility at 24 h: aqueous buffer, thermodynamic from solid; for fold more soluble compared to unphosphated analogue / Solubility ratio: phosphate buffer pH=7.4; for Solubility ratio: phosphate derivative / unphosphated counterpart. The procedure: General procedure: The test compound was solubilized in phosphate buffer pH=7.4 at a given concentration (test concentration). The mixture was maintained under vigorous stirring for 24 hours at room temperature. In case a insoluble solid appeared, it was removed by centrifugation and the concentration of the test compound in the solution was determined by LC-MS/MS using appropriate methods.

The nature of data set [2]: Stability in water at room temperature. It is filed as physicochemical. The settings on record: 5 mg/mL in water. The procedure:
General procedure: compound 2 (Cpd. 2) according to the invention was dissolved in water in order to obtain a 5 mg/mL concentration. The solution was stirred for 7 days at room temperature. Compound 2 was quantified at different time points (0, 5 days and 7 days) by UPLC/MS using appropriate method.
Results are expressed as percentage of initial signal area for Cpd.2 (time point (1-day).

The nature of data set [3]: Metabolic stability (hydrolysis) in bronchoalveolar lavage fluid. It is filed as in vitro ADME, human. The procedure:
General procedure: human bronchoalveolar lavage fluid (hBALf) was purchased from BiolVT. Sample was collected from an individual donor. The only known information provided for the donor were age and gender. Information regarding the health status of the donor was not known.
The hydrolysis of compound 2 was tested at the concentration of 1 μM and 10 μM for 120 minutes (time points 5, 15, 30, 60 and 120 minutes). Quantification of the compound was then carried out by LC-MS/MS using appropriate methods.

Where [4] appears, read: phosphate buffer pH=7.4, stirring 24 hours at room temperature, LC-MS/MS.

One may read the solubility as the dissolved amount per volume that the medium holds. A high value points to a readily soluble substance. For the compound `Cc1ccc(C(NC(=O)C2(c3ccc4[nH]cc(CCOP(=O)([O-])[O-])c4c3)CC2)c2ccc(C)o2)c(C)c1.[Na+].[Na+]` (centres unmarked) [Cpd.2, disodium 2-[5-(1-{[(2,4-dimethylphenyl)(5-methylfuran-2-yl)methyl]carbamoyl}cyclopropyl)-1H-indol-3-yl]ethyl phosphate], in data set [1] (setting [4]), the solubility at 24 h is 143000 µg/mL. Besides, in data set [1], the “fold more soluble compared to unphosphated analogue” value is “at least 1500 fold”. In data set [1], the Solubility ratio is on record as 1 588. Moreover, the “percentage of initial signal area for Cpd.2 (stability in water)” value is on record as 100% in data set [2] (time point 0 days), 98% in data set [2] (time point 5 days) and 98% in data set [2] (time point 7 days). Moreover, the “Cpd.2 quantification in hBALf, percentage of initial signal area” value turned out to be 100% in data set [3] (1 μM, time point 0 min); 16.46% in data set [3] (1 μM, time point 5 min); 1.84% in data set [3] (1 μM, time point 15 min); 0.57% in data set [3] (1 μM, time point 30 min); 0.28% in data set [3] (1 μM, time point 60 min); 0.19% in data set [3] (1 μM, time point 120 min). Further, the “Cpd.2 quantification in hBALf, percentage of initial signal area” value is recorded as 100% in data set [3] (10 μM, time point 0 min); 14.98% in data set [3] (10 μM, time point 5 min); 4.27% in data set [3] (10 μM, time point 15 min); 1.38% in data set [3] (10 μM, time point 30 min); 0.49% in data set [3] (10 μM, time point 60 min); 0.25% in data set [3] (10 μM, time point 120 min).

Take `COc1cc(C)ccc1C(NC(=O)C1(c2ccc3[nH]cc(CCOP(=O)([O-])[O-])c3c2)CC1)c1ccccc1.[Na+].[Na+]` (centres unmarked) [Cpd.4, disodium 2-[5-(1-{[(2-methoxy-4-methylphenyl)(phenyl)methyl]carbamoyl}cyclopropyl)-1H-indol-3-yl]ethyl phosphate]: the solubility at 24 h in data set [1] (setting [4]) amounted to 11200 µg/mL. For the same compound, in data set [1], the Solubility ratio is 7 000.

In the case of `Cc1ccc(C(NC(=O)C2(c3ccc4[nH]cc(CCOP(=O)(O)O)c4c3)CC2)c2cccc(C)n2)c(C)c1.[Na].[Na]` (centres unmarked) [Cpd.6, disodium {2-[5-(1-{[(2,4-dimethyl phenyl)(6-methylpyridin-2-yl)methyl]carbamoyl}cyclopropyl)-1H-indol-3-yl]ethoxy} phosphonic acid], the solubility at 24 h in data set [1] (setting [4]) was > 62700 µg/mL. The Solubility ratio in data set [1] was ≥12 000.

With `Cc1ccc(C(NC(=O)C2(c3ccc4[nH]cc(CCOP(=O)([O-])[O-])c4c3)CC2)c2cccc(Cl)c2)c(C)c1.[Na+].[Na+]` (centres unmarked) [Cpd.8, disodium 2-[5-(1-{[(3-chlorophenyl)(2,4-dimethylphenyl)methyl]carbamoyl}cyclopropyl)-1H-indol-3-yl]ethyl phosphate], the solubility at 24 h in data set [1] (setting [4]) was > 10000 µg/mL. Also, in data set [1], the “fold more soluble compared to unphosphated analogue” value is recorded as “more than 100 000 fold” and the Solubility ratio is listed as ≥100 000.

Take `COc1ccc(C(NC(=O)C2(c3ccc4[nH]cc(CCOP(=O)([O-])[O-])c4c3)CC2)c2ccccc2)c(C)c1.[Na+].[Na+]` (centres unmarked) [Cpd.10, disodium 2-[5-(1-{[(4-methoxy-2-methylphenyl)(phenyl)methyl]carbamoyl}cyclopropyl)-1H-indol-3-yl]ethyl phosphate]: in data set [1] (setting [4]), the solubility at 24 h was > 50400 µg/mL. In data set [1], the Solubility ratio was ≥13513.

Turning to `Cc1ccc(C(NC(=O)C2(c3ccc4[nH]cc(CCOP(=O)([O-])[O-])c4c3)CC2)C2CC2)c(C)c1.[Na+].[Na+]` (centres unmarked) [Cpd.14, disodium 2-[5-(1-{[cyclopropyl(2,4-dimethylphenyl)methyl]carbamoyl}cyclopropyl)-1H-indol-3-yl]ethyl phosphate], the solubility at 24 h in data set [1] (setting [4]) was > 70800 µg/mL. The Solubility ratio in data set [1] is reported as ≥5 949.

Turning to `Cc1ccc(C(NC(=O)C2(c3ccc4[nH]cc(CCOP(=O)([O-])[O-])c4c3)CC2)c2ccccc2)c(N2CCOCC2)c1.[Na+].[Na+]` (centres unmarked) [Cpd.16, disodium 2-{5-[1-({[4-methyl-2-(morpholin-4-yl)phenyl](phenyl)methyl}carbamoyl)cyclopropyl]-1H-indol-3-yl}ethyl phosphate], the solubility at 24 h in data set [1] (setting [4]) stood at 3640 µg/mL. Also, the Solubility ratio in data set [1] is 52 057.

What is called Solubility is how much of the substance goes into solution per volume. Read a low Solubility as a poorly soluble substance. `Cc1noc(C)c1C(NC(=O)C1(c2ccc3[nH]cc(CCOP(=O)([O-])[O-])c3c2)CC1)c1ccccc1.[Na+].[Na+]` (centres unmarked) [Cpd.18, disodium 2-[5-(1-{[(dimethyl-1,2-oxazol-4-yl) (phenyl)methyl]carbamoyl}cyclopropyl)-1H-indol-3-yl] ethyl phosphate]: the Solubility in data set [1] (setting [4]) was >71350 µg/mL. The Solubility ratio in data set [1] is on record as ≥911.

For the compound `Cc1ccc(C(NC(=O)C2(c3ccc4[nH]cc(CCO)c4c3)CC2)c2ccc(C)o2)c(C)c1` (centres unmarked) [Cpd.A, N-[(2,4-dimethylphenyl)(5-methylfuran-2-yl)methyl]-1-[3-(2-hydroxyethyl)-1H-indol-5-yl]cyclopropane-1-carboxamide, reference compound], in data set [1] (setting [4]), the solubility at 24 h was 90 µg/mL (≈ 203 µM).

As for `COc1cc(C)ccc1C(NC(=O)C1(c2ccc3[nH]cc(CCO)c3c2)CC1)c1ccccc1` (centres unmarked) [Ex.2a, 1-[3-(2-hydroxyethyl)-1H-indol-5-yl]-N-[(2-methoxy-4-methylphenyl)(phenyl)methyl]cyclopropane-1-carboxamide], the solubility at 24 h in data set [1] (setting [4]) amounted to 1.6 µg/mL (≈ 3.52 µM).

The compound `Cc1ccc(C(NC(=O)C2(c3ccc4[nH]cc(CCO)c4c3)CC2)c2cccc(C)n2)c(C)c1` (centres unmarked) [Ex.3a, N-[(2,4-dimethylphenyl)(6-methylpyridin-2-yl)methyl]-1-[3-(2-hydroxyethyl)-1H-indol-5-yl]cyclo-propane-1-carboxamide] yielded a solubility at 24 h in data set [1] (setting [4]) of 5.2 µg/mL (≈ 11.5 µM).

Take `Cc1ccc(C(NC(=O)C2(c3ccc4[nH]cc(CCO)c4c3)CC2)c2cccc(Cl)c2)c(C)c1` (centres unmarked) [Ex.4a, N-[(3-chlorophenyl)(2,4-dimethylphenyl)methyl]-1-[3-(2-hydroxyethyl)-1H-indol-5-yl]cyclopropane-1-carboxamide]: the solubility at 24 h in data set [1] (setting [4]) was 0.1 µg/mL (≈ 0.211 µM).

In turn, `COc1ccc(C(NC(=O)C2(c3ccc4[nH]cc(CCO)c4c3)CC2)c2ccccc2)c(C)c1` (centres unmarked) [Ex.5a, 1-[3-(2-hydroxyethyl)-1H-indol-5-yl]-N-[(4-methoxy-2-methylphenyl)(phenyl)methyl]cyclopropane-1-carboxamide] displayed a solubility at 24 h in data set [1] (setting [4]) of 3.7 µg/mL (≈ 8.14 µM).

In data set [1] (setting [4]), `Cc1ccc(C(NC(=O)C2(c3ccc4[nH]cc(CCO)c4c3)CC2)C2CC2)c(C)c1` (centres unmarked) [Ex.7a, N-[cyclopropyl(2,4-dimethylphenyl)methyl]-1-[3-(2-hydroxyethyl)-1H-indol-5-yl]cyclopropane-1-carboxamide] had a solubility at 24 h of 11.9 µg/mL (≈ 29.6 µM).

As for `Cc1ccc(C(NC(=O)C2(c3ccc4[nH]cc(CCO)c4c3)CC2)c2ccccc2)c(N2CCOCC2)c1` (centres unmarked) [Ex.8a, 1-[3-(2-hydroxyethyl)-1H-indol-5-yl]-N-{[4-methyl-2-(morpholin-4-yl)phenyl](phenyl)methyl}cyclopropane-1-carboxamide], the solubility at 24 h in data set [1] (setting [4]) is 0.07 µg/mL (≈ 0.137 µM).

As to `Cc1noc(C)c1C(NC(=O)C1(c2ccc3[nH]cc(CCO)c3c2)CC1)c1ccccc1` (centres unmarked) [Ex.9d, N-[(dimethyl-1,2-oxazol-4-yl)(phenyl)methyl]-1-[3-(2-hydroxyethyl)-1H-indol-5-yl]cyclopropane-1-carboxamide], in data set [1] (setting [4]), the solubility at 24 h came to 78.3 µg/mL (≈ 182 µM).
